Reference: patent US20250140406A1, “CLASSIFYING TUMORS AND PREDICTING RESPONSIVENESS” (Oncocyte Corporation, priority 2022, published 2025)

Key:
[1] = tested on: cancer cell lines, DetermaIO classes; assay: Association of PRISM compound sensitivity with DetermaIO (DTIO) cell line classes; assay type: cell-based
[2] = tested on: cancer cell lines classified IM, MSL, M; assay: PRISM screen compound sensitivity correlated with IM, MSL and M subtype of cell lines (101 gene signature); assay type: cell-based; conditions: for IM Corr test: correlation of PRISM compound sensitivity with IM subtype correlation; for M Corr test: correlation of PRISM compound sensitivity with M subtype correlation; for MSL Corr test: correlation of PRISM compound sensitivity with MSL subtype correlation
[3] = correlation of PRISM compound sensitivity with DTIO (DetermaIO); test cell set (188 cell lines)
[4] = correlation of PRISM compound sensitivity with DTIO (DetermaIO); training cell set (371 cell lines)
[5] = correlation of PRISM compound sensitivity with DTIO; test cell set
[6] = correlation of PRISM compound sensitivity with DTIO; training cell set
[7] = subtype (IM, MSL or M) with which PRISM compound sensitivity is negatively correlated, training cell set, 101 gene signature
[8] = subtype (IM, MSL or M) with which compound sensitivity is negatively correlated, training cell set (371 cell lines), 101 gene signature
[9] = correlation of compound sensitivity with DetermaIO (DTIO), test set
[10] = correlation of compound sensitivity with DetermaIO (DTIO), training set

Row | SMILES | DTIO Corr test [1, 3] | DTIO Corr train [1, 4] | IM Corr test ([2]; test cell set (188 cell lines)) | M Corr test ([2]; test cell set (188 cell lines)) | MSL Corr test ([2]; test cell set (188 cell lines)) | DTIO Corr test [1, 5] | DTIO Corr train [1, 6] | IM Corr test ([2]; test cell set) | M Corr test ([2]; test cell set) | MSL Corr test ([2]; test cell set) | other results
1 | Nc1nccc2c1ncn2C1C=C(CO)C(O)C1O (stereo not drawn) [3-deazaneplanocin-A] | −0.05245 | −0.1309 | −0.02722 | 0.1507 | 0.09034 | – | – | – | – | – | –
2 | O=c1[nH]cnc2ccccc12 [4-HQN] | 0.05447 | −0.1475 | −0.06704 | 0.04595 | 0.1063 | – | – | – | – | – | –
3 | O=S(=O)(O)c1ccc(O)cc1 [4-phenolsulfonic-acid] | – | – | – | – | – | −0.03477 | −0.1569 | −0.06223 | 0.02717 | 0.006866 | –
4 | O=C(O)c1ccc(N2C(=O)/C(=C\c3ccc(-c4ccc([N+](=O)[O-])cc4)o3)C=C2c2ccccc2)cc1 [4E1RCat] | 0.01627 | 0.1551 | 0.05564 | −0.08971 | 0.01051 | – | – | – | – | – | –
5 | Cc1ccc(C[N+](C)(C)C)o1.[I-] [5-methylfurmethiodide] | – | – | – | – | – | −0.01347 | −0.1413 | −0.09845 | 0.06783 | 0.0844 | –
6 | CN[C@@H]1C[C@H]2O[C@@](C)([C@@H]1OC)n1c3ccccc3c3c4c(c5c6ccccc6n2c5c31)C(=O)N[C@H]4O [7-hydroxystaurosporine] | – | – | – | – | – | −0.07646 | −0.1515 | −0.06588 | 0.06924 | 0.09088 | –
7 | COc1ccc2nc3c(c(N)c2c1)CCCC3 [7-methoxytacrine] | – | – | – | – | – | 0.06329 | −0.03204 | −0.03879 | −0.03683 | −0.06604 | TNBCType train [2, 7]: MSL
8 | Nc1nc2c(nc(Br)n2[C@@H]2O[C@@H]3COP(=O)(O)O[C@H]3[C@H]2O)c(=O)[nH]1 [8-bromo-cGMP] | – | – | −0.00708 | −0.06633 | −0.05953 | −0.017 | 0.07485 | – | – | – | TNBCType train [2, 8]: MSL
9 | CCN(CC)CCCCN1c2ccccc2Oc2ccc(Cl)cc21 [10-DEBC] | −0.02503 | −0.1109 | −0.00116 | −0.0627 | −0.03074 | – | – | – | – | – | –
10 | Cc1ccc(Sc2cncc3sc(C(N)=O)cc23)cc1 [A205804] | −0.1235 | −0.1273 | −0.1562 | 0.1655 | 0.07391 | – | – | – | – | – | –
11 | C/C=C1/[C@H](O[C@@H]2O[C@H](CO)[C@@H](O)[C@H](O)[C@H]2O)OC=C(C(=O)OC)[C@H]1CC(=O)OCCc1ccc(O)c(O)c1 [A00842753] | – | – | – | – | – | – | – | – | – | – | DTIO Corr test ([1]; association of compound sensitivity with DetermaIO classes; test data set): 0.02172; DTIO Corr train ([1]; association of compound sensitivity with DetermaIO classes; training data set): −0.00213; TNBCType test ([2]; classification of association of compound sensitivity with IM, MSL and M cell line classes, test data set): MSL; TNBCType train ([2]; classification of association of compound sensitivity with IM, MSL and M cell line classes, training data set): MSL
12 | C#Cc1cccc2c1c(C(=O)c1ccc(Cn3c(C)nc4cnccc43)c(F)c1)cn2C(=O)N(C)C [ABT-491] | – | – | −0.08486 | 0.04621 | 0.009812 | – | – | – | – | – | DTIO Corr test ([1]; correlation of PRISM compound sensitivity with DTIO; test cell set (188 cell lines)): −0.1207; DTIO Corr train ([1]; correlation of PRISM compound sensitivity with DTIO; training cell set (371 cell lines)): −0.1065
13 | C/C(=N\NC(=O)[C@H]1C(=O)NC[C@@H]1c1ccccc1)c1cccc(Br)c1 [AC-264613] | −0.03521 | −0.07682 | −0.07621 | 0.0938 | 0.002402 | – | – | – | – | – | –
14 | C[C@H](Nc1ncnc2[nH]cnc12)c1cc2ccc(F)cc2nc1-c1ccccn1 [AMG319] | – | – | 0.07986 | −0.1713 | −0.08814 | 0.03283 | −0.03859 | – | – | – | TNBCType train [2, 8]: MSL
15 | C[C@H](Nc1ncnc2[nH]cnc12)c1cc2ccc(F)cc2nc1-c1ccccn1 [AMG-319] | – | – | – | – | – | −0.04463 | −0.0218 | −0.00518 | −0.1202 | −0.07748 | TNBCType train [2, 7]: MSL
16 | CCOc1ccc(-n2c([C@@H](C)N(Cc3cccnc3)C(=O)Cc3ccc(OC(F)(F)F)cc3)nc3ncccc3c2=O)cc1 [AMG-487] | −0.01666 | −0.0821 | −0.08583 | 0.04766 | 0.1557 | – | – | – | – | – | –
17 | C[C@@H]1COC(Nc2ccc3ncnc(Nc4ccc(OCc5nccs5)c(Cl)c4)c3c2)=N1 [ARRY-334543] | – | – | – | – | – | −0.03109 | −0.05992 | −0.1679 | 0.2632 | 0.3622 | DTIO Corr test [1, 9]: −0.03109; DTIO Corr train [1, 10]: −0.05992
18 | Clc1ccc(C2(c3ccc(-c4cn[nH]c4)cc3)CCNCC2)cc1 [AT7867] | – | – | 0.04603 | −0.1665 | −0.1142 | 0.003574 | 0.04812 | – | – | – | TNBCType train [2, 8]: MSL
19 | C=CC(=O)Nc1cc2c(Nc3ccc(F)c(Cl)c3)ncnc2cc1C#CC(C)(C)N1CCN(C)CC1.Cc1ccc(S(=O)(=O)O)cc1.Cc1ccc(S(=O)(=O)O)cc1 [AV-412] | – | – | – | – | – | −0.04654 | −0.09469 | −0.1668 | 0.2317 | 0.3378 | DTIO Corr test ([1]; correlation of compound sensitivity with DTIO; test set): −0.04654; DTIO Corr train ([1]; correlation of compound sensitivity with DTIO; training set): −0.09469
20 | Cc1cc(Nc2nc(N[C@@H](C)c3ccc(F)cc3)c(C#N)cc2F)n[nH]1 [AZ960] | −0.07766 | −0.135 | −0.0625 | 0.008122 | 0.05509 | – | – | – | – | – | –
21 | Cc1ccc(NC(=O)c2cccc(C(C)(C)C#N)c2)cc1Nc1ccc2ncn(C)c(=O)c2c1 [AZ-628] | – | – | 0.3356 | −0.2327 | 0.1133 | 0.3247 | 0.1908 | – | – | – | DTIO Corr test [1, 9]: 0.3247; DTIO Corr train [1, 10]: 0.1908; DTIO Corr test ([1]; correlation of compound sensitivity with DetermaIO (DTIO); test set): 0.3247; DTIO Corr train ([1]; correlation of compound sensitivity with DetermaIO (DTIO); training set): 0.1908
22 | C=CCNC(=O)c1cc([N+](=O)[O-])cc2c(=O)[nH]c(Nc3ccc(Cl)c(Cl)c3)nc12 [AZ-10417808] | – | – | – | – | – | −0.05539 | −0.1839 | −0.06367 | 0.03341 | 0.2588 | –
23 | N[C@@H]1CCCN(c2c(/C=C3\SC(=O)NC3=O)cccc2-c2ccccc2)C1 [AZD1208] | – | – | – | – | – | 0.02868 | 0.03472 | 0.06359 | −0.02916 | 0.004575 | –
24 | C[C@@H](Oc1cc(NS(=O)(=O)N2CCC2)nc(SCc2cccc(F)c2F)n1)[C@@H](O)CO [AZD5069] | – | – | – | – | – | −0.00725 | −0.151 | −0.07882 | 0.1362 | 0.02875 | –
